Data reported in ChEMBL document CHEMBL1141415, “Design, synthesis, and crystal structure of hydroxyethyl secondary amine-based peptidomimetic inhibitors of human beta-secretase” (J Med Chem, 2007).

Tests used:
Beta-secretase (BACE) [1] = target: T1, Beta-secretase (BACE) (Homo sapiens, UniProt Q9Y5Z0+P56817); experiment: Inhibition of beta amyloid production in human HEK293 cells; assay type: functional, cell-based
Beta-secretase 1 = Beta-secretase 1 (Homo sapiens, UniProt P56817); experiment: Inhibition of human BACE1 by MBPC125Swe assay; assay type: cell-based
Beta-secretase (BACE) [2] = target: T1, Beta-secretase (BACE); experiment: Ratio of EC50 for beta amyloid to IC50 for BACE1; assay type: functional

Chain of Beta-secretase 1 (P56817 whole entry): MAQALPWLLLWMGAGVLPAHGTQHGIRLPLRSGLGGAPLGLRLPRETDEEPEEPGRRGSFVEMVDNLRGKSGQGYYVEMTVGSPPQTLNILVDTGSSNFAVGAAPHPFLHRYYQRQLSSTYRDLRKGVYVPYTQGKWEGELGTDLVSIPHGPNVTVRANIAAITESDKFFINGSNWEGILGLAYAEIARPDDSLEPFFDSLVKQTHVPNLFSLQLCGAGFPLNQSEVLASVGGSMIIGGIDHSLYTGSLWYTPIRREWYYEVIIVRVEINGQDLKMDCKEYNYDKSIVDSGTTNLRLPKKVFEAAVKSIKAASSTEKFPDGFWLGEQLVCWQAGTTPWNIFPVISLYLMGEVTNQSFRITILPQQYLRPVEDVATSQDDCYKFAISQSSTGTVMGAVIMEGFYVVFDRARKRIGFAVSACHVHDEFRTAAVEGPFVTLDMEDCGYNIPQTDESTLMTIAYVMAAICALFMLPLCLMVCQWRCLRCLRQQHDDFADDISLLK
T1 sequence (P56817 whole entry, looked up): as the sequence (P56817 whole entry) above
T1 sequence (Q9Y5Z0 whole entry, looked up): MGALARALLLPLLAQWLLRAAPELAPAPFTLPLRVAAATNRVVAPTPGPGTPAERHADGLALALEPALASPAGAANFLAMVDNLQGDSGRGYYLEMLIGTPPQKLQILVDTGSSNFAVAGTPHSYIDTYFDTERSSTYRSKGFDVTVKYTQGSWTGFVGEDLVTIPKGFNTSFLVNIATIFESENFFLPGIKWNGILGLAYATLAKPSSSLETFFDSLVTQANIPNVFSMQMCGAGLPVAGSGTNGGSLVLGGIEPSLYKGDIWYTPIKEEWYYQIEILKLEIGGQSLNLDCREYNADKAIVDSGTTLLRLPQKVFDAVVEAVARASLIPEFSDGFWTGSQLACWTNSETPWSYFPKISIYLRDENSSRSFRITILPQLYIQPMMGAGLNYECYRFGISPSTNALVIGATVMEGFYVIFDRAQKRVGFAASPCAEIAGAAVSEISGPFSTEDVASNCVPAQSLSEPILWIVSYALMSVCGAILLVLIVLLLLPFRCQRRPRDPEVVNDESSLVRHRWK

EC50 (Beta-secretase (BACE) [1]) | IC50 (Beta-secretase 1) | Ratio (Beta-secretase (BACE) [2]) | SMILES
230 nM | – | – | CCCN(CCC)C(=O)c1cc(C)cc(C(=O)N[C@@H](Cc2cc(F)cc(F)c2)[C@H](O)CNC(C)(C)C(=O)NCC(C)C)c1
40 nM | 130 nM | 0.3 | CCCN(CCC)C(=O)c1cc(C)cc(C(=O)N[C@@H](Cc2cc(F)cc(F)c2)[C@H](O)CNCc2ccccc2)c1
600 nM | 500 nM | – | CCCN(CCC)C(=O)c1cccc(C(=O)N[C@@H](Cc2cc(F)cc(F)c2)[C@H](O)CN[C@H](C)C(=O)NCC(C)C)c1
230 nM | 130 nM | 1 | CCCN(CCC)C(=O)c1cccc(C(=O)N[C@@H](Cc2cc(F)cc(F)c2)[C@H](O)CN[C@@H](C)C(=O)NCC(C)C)c1
80 nM | 70 nM | – | CCCN(CCC)C(=O)c1cc(C)cc(C(=O)N[C@@H](Cc2cc(F)cc(F)c2)[C@H](O)CN[C@@H](C)C(=O)NCC(C)C)c1
